{"source": "patent US6552083B1", "about": "“Agents inhibiting chronic rejection reactions after organ transplantation” (Kissei Pharmaceutical Co., Ltd., priority 1999, dated 2003)", "key": {"[1]": {"test_system": "coronary arteries of transplanted heart", "assay": "Test for confirming inhibitory activity against intimal thickening in transplant organ after organ transplantation (mouse heart transplantation model)", "type": "in vivo, mice (DBA/2 donor, B10D2 recipient)", "text": "(§1) In a transplantation test, 4 to 6-week-old DBA/2 male mice each weighing 20 to 25 g (available from Charles River Laboratories) were used an donor animals, and 4 to 6-week-old B10D2 male mice each weighing 20 to 25 g (ava from Charles River Laboratories) were used as recipient animals. From three days before testing, mice in a control group were fed on a standard diet, and mice in a drug-treated group were given a 0.25% or 0.5% tranilast-containing diet (CE-2). On the day of testing, the heart was excised from a donor mouse and transplanted into the abdomen of a recipient mouse in accordance with the procedures described in the literature (Science, vol. 255, pp. 1125-1127 (1992)). Fourteen and twenty-eight days from the transplantation, the transplanted heart was excised and placed in formalin. Three specimens (thickness: […]) were sliced from different sites of the excised heart. Each slice was stained with Elastica van Geison stain, and the coronary arteries were observed under a microscope to calculate a vascular stenosis ratio according to the following equation: Vascular stenosis ratio (%)=[(area inside of elastica −lumen area)/area inside of elastica]×100"}, "[2]": {"test_system": "transplanted heart", "assay": "Test for evaluating rejection in transplant organ after organ transplantation (infiltration of lymphocytes into the tissue)", "type": "in vivo, mice (DBA/2 donor, B10D2 recipient)", "text": "as §1, with “The degree” for “Vascular stenosis ratio (%)=[(area inside”, “rejection in the hearts transplanted to and excited from the recipient mice in the same manner as in Example 1 was evaluated in terms” for “elastica −lumen area)/area inside”, “the degree of infiltration of lymphocytes into the tissue in accordance with the Working Formation of the International Society for Heart and Lung Transplantation and with the following criteria. 0 . . . No infiltration of lymphocytes into the tissue was seen. 1 . . . Slight infiltration of lymphocytes into the tissue was observed. 2 . . . Medium infiltration of lymphocytes into the tissue was observed. 3 . . . Severe infiltration of lymphocytes into the tissue was observed.” for “elastica]×100”"}, "[3]": {"conditions": "0.25% or 0.5% tranilast-containing diet, mouse heart transplantation"}}}
{"compound": "COc1ccc(/C=C/C(=O)Nc2ccccc2C(=O)O)cc1OC", "note": "[Tranilast, N-(3,4-dimethoxycinnamoyl)anthranililc acid]", "values": [{"measurement": "Inhibition of vascular thickening in a transplanted heart (result in words)", "setting": "[1]; [3]", "value": "dose-dependently significantly inhibits vascular thickening in a transplanted heart"}, {"measurement": "Vascular Stenosis Ratio (%)", "setting": "[1]; 0.25% tranilast-containing feed from 3 days before transplantation, 14-days post-operation, control group 70.3", "value": 55.5, "unit": "%"}, {"measurement": "Vascular Stenosis Ratio (%)", "setting": "[1]; 0.25% tranilast-containing feed, 28-days post-operation, control group 73.3", "value": 61.9, "unit": "%"}, {"measurement": "Vascular Stenosis Ratio (%)", "setting": "[1]; 0.5% tranilast-containing feed, 14-days post-operation, control group 70.3", "value": 45.5, "unit": "%"}, {"measurement": "Vascular Stenosis Ratio (%)", "setting": "[1]; 0.5% tranilast-containing feed, 28-days post-operation, control group 73.3", "value": 47.7, "unit": "%"}, {"measurement": "Infiltration of lymphocytes into the tissue (result in words)", "setting": "[2]; [3]", "value": "alleviates infiltration of lymphocytes into the tissue"}, {"measurement": "Degree of rejection", "setting": "[2]; score 0 (no) to 3 (severe) lymphocyte infiltration, 0.25% tranilast-containing feed, 14-days post-operation, control group 2.07", "value": 1.70}, {"measurement": "Degree of rejection", "setting": "[2]; score 0 to 3, 0.25% tranilast-containing feed, 28-days post-operation, control group 2.88", "value": 2.38}, {"measurement": "Degree of rejection", "setting": "[2]; score 0 to 3, 0.5% tranilast-containing feed, 14-days post-operation, control group 2.07", "value": 1.80}, {"measurement": "Degree of rejection", "setting": "[2]; score 0 to 3, 0.5% tranilast-containing feed, 28-days post-operation, control group 2.88", "value": 2.08}]}
